Measurements: ChEMBL document CHEMBL5532691, “Anti-cancer activity and mechanism of flurbiprofen organoselenium compound RY-1-92 in non-small cell lung cancer” (RSC Med Chem, 2024)
Activity calls are given as the source filed them.

Assays:
[1] = test system: NCI-H460; assay: Induction of apoptosis in human NCI-H460 cells assessed as late apoptotic cells at 30 uM measured after 48 hrs by annexin V-FITC/PI staining based flow cytometry analysis (reference value: 5.41%); assay type: functional
[2] = test system: NCI-H460; assay: Induction of apoptosis in human NCI-H460 cells assessed as necrotic cells at 30 uM measured after 48 hrs by annexin V-FITC/PI staining based flow cytometry analysis (reference value: 2.47%); assay type: functional
[3] = test system: A549; assay: Downregulation of CDK1 protein expression in human A549 cells at 10 to 30 uM by Western blot analysis; assay type: functional, cell-based; conditions: dose 10-30 µM
[4] = test system: A549; assay: Downregulation of cyclin B1 protein expression in human A549 cells at 10 to 30 uM by Western blot analysis; assay type: functional, cell-based; conditions: dose 10-30 µM
[5] = test system: NCI-H460; assay: Downregulation of CDK1 protein expression in human NCI-H460 cells at 30 uM by Western blot analysis; assay type: functional, cell-based
[6] = test system: NCI-H460; assay: Downregulation of cyclin B1 protein expression in human NCI-H460 cells at 30 uM by Western blot analysis; assay type: functional, cell-based
[7] = test system: A549; assay: Upregulation of Bax protein expression in human A549 cells at 10 to 30 uM by Western blot analysis; assay type: functional, cell-based; conditions: dose 10-30 µM
[8] = test system: NCI-H460; assay: Upregulation of Bax protein expression in human NCI-H460 cells at 10 uM by Western blot analysis; assay type: functional, cell-based
[9] = test system: A549; assay: Upregulation of Bax/Bcl2 ratio in human A549 cells at 10 to 30 uM by Western blot analysis; assay type: functional, cell-based; conditions: dose 10-30 µM
[10] = test system: NCI-H460; assay: Upregulation of Bax/Bcl2 ratio in human NCI-H460 cells at 10 to 30 uM by Western blot analysis; assay type: functional, cell-based; conditions: dose 10-30 µM
[11] = test system: A549; assay: Inhibition of colony formation in human A549 cells at 10 uM measured after 48 hrs by giemsa staining based analysis relative to control; assay type: functional
[12] = test system: A549; assay: Inhibition of colony formation in human A549 cells at 30 uM measured after 48 hrs by giemsa staining based analysis relative to control; assay type: functional
[13] = test system: NCI-H460; assay: Inhibition of colony formation in human NCI-H460 cells at 30 uM measured after 48 hrs by giemsa staining based analysis relative to control; assay type: functional
[14] = test system: A549; assay: Inhibition of cell migration in human A549 cells at 10 to 30 uM measured after 24 hrs by wound healing assay relative to control; assay type: functional; conditions: dose 10-30 µM
[15] = test system: NCI-H460; assay: Inhibition of cell migration in human NCI-H460 cells at 10 to 30 uM measured after 24 hrs by wound healing assay relative to control; assay type: functional; conditions: dose 10-30 µM
[16] = test system: A549; assay: Downregulation of TRPV1 expression level in human A549 cells at 10 to 30 uM by Western blot analysis; assay type: functional, cell-based; conditions: dose 10-30 µM
[17] = test system: NCI-H460; assay: Downregulation of TRPV1 expression level in human NCI-H460 cells at 10 to 30 uM by Western blot analysis; assay type: functional, cell-based; conditions: dose 10-30 µM
[18] = test system: A549; assay: Downregulation of JNK phosphorylation expression in human A549 cells at 10 to 30 uM by Western blot analysis; assay type: functional, cell-based; conditions: dose 10-30 µM
[19] = test system: NCI-H460; assay: Downregulation of JNK phosphorylation expression in human NCI-H460 cells at 10 to 30 uM by Western blot analysis; assay type: functional, cell-based; conditions: dose 10-30 µM
[20] = test system: A549; assay: Downregulation of ERK phosphorylation expression in human A549 cells at 10 to 30 uM by Western blot analysis; assay type: functional, cell-based; conditions: dose 10-30 µM
[21] = test system: NCI-H460; assay: Downregulation of ERK phosphorylation expression in human NCI-H460 cells at 10 to 30 uM by Western blot analysis; assay type: functional, cell-based; conditions: dose 10-30 µM
[22] = test system: A549; assay: Downregulation of P38 phosphorylation expression in human A549 cells at 10 to 30 uM by Western blot analysis; assay type: functional, cell-based; conditions: dose 10-30 µM
[23] = test system: NCI-H460; assay: Downregulation of P38 phosphorylation expression in human NCI-H460 cells at 10 to 30 uM by Western blot analysis; assay type: functional, cell-based; conditions: dose 10-30 µM
[24] = test system: A549; assay: Downregulation of AKT phosphorylation expression in human A549 cells at 10 to 30 uM by Western blot analysis; assay type: functional, cell-based; conditions: dose 10-30 µM
[25] = test system: NCI-H460; assay: Downregulation of AKT phosphorylation expression in human NCI-H460 cells at 10 to 30 uM by Western blot analysis; assay type: functional, cell-based; conditions: dose 10-30 µM
[26] = test system: Lewis lung carcinoma; assay: Antitumor activity against mouse Lewis lung carcinoma cell line xenografted in C57BL/6 mouse model assessed as reduction in tumor volume at 10 to 20 mg/kg, ip measured every three days for 15 days by vernier caliper analysis; assay type: functional, organism-based; conditions: dose 10-20 mg/kg, time 15.0 day
[27] = test system: Lewis lung carcinoma; assay: Antitumor activity against mouse Lewis lung carcinoma cell line xenografted in C57BL/6 mouse model assessed as reduction in tumor weight at 10 to 20 mg/kg, ip measured every three days for 15 days […]; assay type: functional, organism-based; conditions: dose 10-20 mg/kg, time 15.0 day
[28] = test system: Lewis lung carcinoma; assay: Antitumor activity against mouse Lewis lung carcinoma cell line xenografted in C57BL/6 mouse model assessed as downregulation of CDK1 expression at 10 to 20 mg/kg by Western blot analysis; assay type: functional, organism-based; conditions: dose 10-20 mg/kg
[29] = test system: Lewis lung carcinoma; assay: Antitumor activity against mouse Lewis lung carcinoma cell line xenografted in C57BL/6 mouse model assessed as downregulation of cyclin B1 expression at 10 to 20 mg/kg by Western blot analysis; assay type: functional, organism-based; conditions: dose 10-20 mg/kg
[30] = test system: Lewis lung carcinoma; assay: Antitumor activity against mouse Lewis lung carcinoma cell line xenografted in C57BL/6 mouse model assessed as increase in bax protein expression at 10 to 20 mg/kg by Western blot analysis; assay type: functional, organism-based; conditions: dose 10-20 mg/kg
[31] = test system: Lewis lung carcinoma; assay: Antitumor activity against mouse Lewis lung carcinoma cell line xenografted in C57BL/6 mouse model assessed as decrease in bcl-2 protein expression at 10 to 20 mg/kg by Western blot analysis; assay type: functional, organism-based; conditions: dose 10-20 mg/kg
[32] = test system: Lewis lung carcinoma; assay: Antitumor activity against mouse Lewis lung carcinoma cell line xenografted in C57BL/6 mouse model assessed as increase in Bax/Bcl2 ratio at 10 to 20 mg/kg by Western blot analysis; assay type: functional, organism-based; conditions: dose 10-20 mg/kg

CC(C(=O)NCCC[Se]C(F)(F)F)c1ccc(-c2ccccc2)c(F)c1 (configuration not stated)
17.28%: Activity [1]
62.9%: inhibition (INH) [14]
45%: inhibition at 10 µM [11]
active: Activity [3] | Activity [4] | Activity [5] | Activity [6] | Activity [7] | Activity [8] | Activity [9] | Activity [10] | Activity [16] | Activity [17] | Activity [18] | Activity [19] | Activity [20] | Activity [21] | Activity [22] | Activity [23] | Activity [24] | Activity [25] | Activity [26] | Activity [27] | Activity [28] | Activity [29] | Activity [30] | Activity [31] | Activity [32]
89%: inhibition at 30 µM [12]
47.5%: inhibition (INH) [15]
88%: inhibition at 30 µM [13]
6.76%: Activity [2]
